Measured values as given in ChEMBL document CHEMBL4138146, “A Schmidt rearrangement-mediated synthesis of novel tetrahydro-benzo[1,4]diazepin-5-ones as potential anticancer and antiprotozoal agents” (Eur J Med Chem, 2017).

Key:
Format in all cases: functional
M14 = experiment: Growth inhibition of human M14 cells assessed as cell growth at 10^-4 M incubated for 48 hrs by sulforhodamine B assay relative to control; details: M14, 48 h, read-out: Activity
IGROV-1 = experiment: Growth inhibition of human IGROV1 cells assessed as cell growth at 10^-4 M incubated for 48 hrs by sulforhodamine B assay relative to control; details: IGROV-1, 48 h, read-out: Activity
MDA-MB-468 [1] = experiment: Growth inhibition of human MDA-MB-468 cells assessed as cell growth at 10^-4 M incubated for 48 hrs by sulforhodamine B assay relative to control; details: MDA-MB-468, 48 h, read-out: Activity
SK-MEL-5 = experiment: Growth inhibition of human SK-MEL-5 cells assessed as cell growth at 10^-6 M incubated for 48 hrs by sulforhodamine B assay relative to control; details: SK-MEL-5, 48 h, read-out: Activity
HOP-92 = experiment: Growth inhibition of human HOP92 cells assessed as cell growth at 10^-4 M incubated for 48 hrs by sulforhodamine B assay relative to control; details: HOP-92, 48 h, read-out: Activity
LOX IMVI = experiment: Growth inhibition of human LOXIMVI cells assessed as cell growth at 10^-6 M incubated for 48 hrs by sulforhodamine B assay relative to control; details: read-out: Activity
MDA-MB-468 [2] = experiment: Growth inhibition of human MDA-MB-468 cells assessed as cell growth at 10^-5 M incubated for 48 hrs by sulforhodamine B assay relative to control; details: MDA-MB-468, 48 h, read-out: Activity
UO-31 [3] = experiment: Growth inhibition of human UO31 cells assessed as cell growth at 10^-8 M incubated for 48 hrs by sulforhodamine B assay relative to control; details: UO-31, 48 h, read-out: Activity
SK-OV-3 = experiment: Growth inhibition of human SKOV3 cells assessed as cell growth at 10^-4 M incubated for 48 hrs by sulforhodamine B assay relative to control; details: SK-OV-3, 48 h, read-out: Activity
HL-60(TB) = experiment: Growth inhibition of human HL-60(TB) cells assessed as cell growth at 10^-7 M incubated for 48 hrs by sulforhodamine B assay relative to control; details: HL-60, 48 h, read-out: Activity
K562 = experiment: Growth inhibition of human K562 cells assessed as cell growth at 10^-4 M incubated for 48 hrs by sulforhodamine B assay relative to control; details: K562, 48 h, read-out: Activity
HOP-62 = experiment: Growth inhibition of human HOP62 cells assessed as cell growth at 10^-4 M incubated for 48 hrs by sulforhodamine B assay relative to control; details: HOP-62, 48 h, read-out: Activity
CAKI-1 = experiment: Growth inhibition of human Caki1 cells assessed as cell growth at 10^-5 M incubated for 48 hrs by sulforhodamine B assay relative to control; details: CAKI-1, 48 h, read-out: Activity
TK-10 [4] = experiment: Growth inhibition of human TK10 cells assessed as cell growth at 10^-6 M incubated for 48 hrs by sulforhodamine B assay relative to control; details: TK-10, 48 h, read-out: Activity
DU-145 = experiment: Growth inhibition of human DU145 cells assessed as cell growth at 10^-8 M incubated for 48 hrs by sulforhodamine B assay relative to control; details: DU-145, 48 h, read-out: Activity
OVCAR-8 = experiment: Growth inhibition of human OVCAR8 cells assessed as cell growth at 10^-6 M incubated for 48 hrs by sulforhodamine B assay relative to control; details: OVCAR-8, 48 h, read-out: Activity
TK-10 [5] = experiment: Growth inhibition of human TK10 cells assessed as cell growth at 10^-8 M incubated for 48 hrs by sulforhodamine B assay relative to control; details: TK-10, 48 h, read-out: Activity
COLO 205 = experiment: Growth inhibition of human COLO205 cells assessed as cell growth at 10^-7 M incubated for 48 hrs by sulforhodamine B assay relative to control; details: COLO 205, 48 h, read-out: Activity
OVCAR-5 [6] = experiment: Growth inhibition of human OVCAR5 cells assessed as cell growth at 10^-5 M incubated for 48 hrs by sulforhodamine B assay relative to control; details: OVCAR-5, 48 h, read-out: Activity
MDA-MB-231 = experiment: Growth inhibition of human MDA-MB-231 cells assessed as cell growth at 10^-5 M incubated for 48 hrs by sulforhodamine B assay relative to control; details: MDA-MB-231, 48 h, read-out: Activity
PC-3 [7] = experiment: Growth inhibition of human PC3 cells assessed as cell growth at 10^-7 M incubated for 48 hrs by sulforhodamine B assay relative to control; details: PC-3, 48 h, read-out: Activity
786-0 = experiment: Growth inhibition of human 786-0 cells assessed as cell growth at 10^-8 M incubated for 48 hrs by sulforhodamine B assay relative to control; details: 786-0, 48 h, read-out: Activity
HT-29 = experiment: Growth inhibition of human HT-29 cells assessed as cell growth at 10^-4 M incubated for 48 hrs by sulforhodamine B assay relative to control; details: HT-29, 48 h, read-out: Activity
UO-31 [8] = experiment: Growth inhibition of human UO31 cells assessed as cell growth at 10^-7 M incubated for 48 hrs by sulforhodamine B assay relative to control; details: UO-31, 48 h, read-out: Activity
NCI/ADR-RES = experiment: Growth inhibition of human NCI/ADR-RES cells assessed as cell growth at 10^-4 M incubated for 48 hrs by sulforhodamine B assay relative to control; details: read-out: Activity
NCI-H322M = experiment: Growth inhibition of human NCI-H322M cells assessed as cell growth at 10^-7 M incubated for 48 hrs by sulforhodamine B assay relative to control; details: read-out: Activity
RXF 393 = experiment: Growth inhibition of human RXF393 cells assessed as cell growth at 10^-8 M incubated for 48 hrs by sulforhodamine B assay relative to control; details: RXF 393, 48 h, read-out: Activity
NCI-H23 = experiment: Growth inhibition of human NCI-H23 cells assessed as cell growth at 10^-8 M incubated for 48 hrs by sulforhodamine B assay relative to control; details: NCI-H23, 48 h, read-out: Activity
NCI-H226 = experiment: Growth inhibition of human NCI-H226 cells assessed as cell growth at 10^-8 M incubated for 48 hrs by sulforhodamine B assay relative to control; details: NCI-H226, 48 h, read-out: Activity
PC-3 [9] = experiment: Growth inhibition of human PC3 cells assessed as cell growth at 10^-5 M incubated for 48 hrs by sulforhodamine B assay relative to control; details: PC-3, 48 h, read-out: Activity
SF-295 = experiment: Growth inhibition of human SF295 cells assessed as cell growth at 10^-7 M incubated for 48 hrs by sulforhodamine B assay relative to control; details: SF-295, 48 h, read-out: Activity
MOLT-4 = experiment: Growth inhibition of human MOLT4 cells assessed as cell growth at 10^-7 M incubated for 48 hrs by sulforhodamine B assay relative to control; details: MOLT-4, 48 h, read-out: Activity
OVCAR-5 [10] = experiment: Growth inhibition of human OVCAR5 cells assessed as cell growth at 10^-7 M incubated for 48 hrs by sulforhodamine B assay relative to control; details: OVCAR-5, 48 h, read-out: Activity

With `CCCCOc1nc2ccccc2cc1C1CNC(=O)c2ccccc2N1` (stereo not drawn) the growth at 100 µM (M14) was -52%, the growth at 100 µM (IGROV-1) was -51% and the growth at 100 µM (MDA-MB-468 [1]) was -43%. The growth at 1 µM (SK-MEL-5) was 73%, the growth at 100 µM (HOP-92) was -38% and the growth at 1 µM (LOX IMVI) was 80%. It also gave a growth at 10 µM (MDA-MB-468 [2]) of -10%, a growth at 0.01 µM (UO-31 [3]) of 80% and a growth at 100 µM (SK-OV-3) of -21%. For the same molecule, the growth at 0.1 µM (HL-60(TB)) was 26%, the growth at 100 µM (K562) was -25% and the growth at 100 µM (HOP-62) was -59%. The growth at 10 µM (CAKI-1) was 25%, the growth at 1 µM (TK-10 [4]) was 92% and the growth at 0.01 µM (DU-145) was 101%. For the same molecule, the growth at 1 µM (OVCAR-8) was 94%, the growth at 0.01 µM (TK-10 [5]) was 75% and the growth at 0.1 µM (COLO 205) was 95%. The growth at 10 µM (OVCAR-5 [6]) was 38%, the growth at 10 µM (MDA-MB-231) was 25% and the growth at 0.1 µM (PC-3 [7]) was 97%. It also gave a growth at 0.01 µM (786-0) of 99%, a growth at 100 µM (HT-29) of -61% and a growth at 0.1 µM (UO-31 [8]) of 86%. The growth at 100 µM (NCI/ADR-RES) was -50%, the growth at 0.1 µM (NCI-H322M) was 95% and the growth at 0.01 µM (RXF 393) was 100%. It also gave a growth at 0.01 µM (NCI-H23) of 95%, a growth at 0.01 µM (NCI-H226) of 97% and a growth at 10 µM (PC-3 [9]) of 9%. It also gave a growth at 0.1 µM (SF-295) of 88%, a growth at 0.1 µM (MOLT-4) of 94% and a growth at 0.1 µM (OVCAR-5 [10]) of 102%.
